From ChEMBL document CHEMBL4421722, “Inhibitors of protein prenyltransferases” (2013)
Calls of active or inactive are those of the source. The rule behind the calls is not given here.

Columns and labels:
[1] = biological target: Protein farnesyltransferase (Rattus norvegicus) (UniProt Q04631+Q02293); assay: Inhibition of rat recombinant FTase alpha/beta expressed in Escherichia coli at 50000 nM using K-Ras4B as a substrate as and [3H]farnesyl pyrophosphate incubated for 30 mins by scintillation counting assay
[2] = biological target: T1, Geranylgeranyl transferase type-2 (Homo sapiens) (UniProt P53611+Q92696); assay: Inhibition of RabGGTase (unknown origin) up to 10000 nM using YPTI as substrate protein and [3H]geranylgeranyl pyrophosphate incubated for 20 mins by scintillation counting assay; assay type: protein-complex assay
Rattus norvegicus [3] = species: Rattus norvegicus; assay: (§1) Competitive inhibition of rat recombinant geranylgeranyltransferase type I expressed in Escherichia coli assessed as reduction in geranylgeranylation of RhoA incubated for 30 mins in presence of varying level of [3H]GGPP and fixed RhoA levels by scintillation counting assay relative to control
Rattus norvegicus [4] = species: Rattus norvegicus; assay: Inhibition of rat recombinant geranylgeranyltransferase type I expressed in Escherichia coli assessed as residual enzyme activity for geranylgeranylation of K-Ras4B at 50 uM incubated for 30 mins in presence of [3H]GGPP by scintillation counting assay relative to control
HEK293 [5] = assay: Inhibition of geranylgeranyltransferase type I in HEK293 cells expressing Myc-HA-tagged Rheb-WT assessed as effect on unprenylated Rap1 accumulation at 2.5 uM incubated for 48 hrs by SDS-PAGE and immunoblot analysis; assay type: cell-based; conditions: Homo sapiens
[6] = Inhibition of rat recombinant geranylgeranyltransferase type I expressed in Escherichia coli assessed as reduction in geranylgeranylation of K-Ras4B incubated for 30 mins in presence of [3H]GGPP by scintillation counting assay
HEK293 [7] = assay: Inhibition of geranylgeranyltransferase type I in HEK293 cells expressing Myc-HA-tagged Rheb-CVSL assessed as effect on unprenylated Rap1 accumulation at 12.5 to 50 uM incubated for 48 hrs by SDS-PAGE and immunoblot analysis; assay type: cell-based; conditions: Homo sapiens
Rattus norvegicus [8] = species: Rattus norvegicus; assay: as §1, with “Uncompetitive” for “Competitive”, “by Michaelis-Menten plot analysis” for “relative to control”
Jurkat [9] = assay: Antiproliferative activity against human Jurkat cells assessed as inhibition of cell proliferation at 12.5 uM incubated for 72 hrs by CCK8 assay; assay type: functional, cell-based
Rattus norvegicus [10] = species: Rattus norvegicus; assay: Inhibition of rat recombinant geranylgeranyltransferase type I expressed in Escherichia coli assessed as residual enzyme activity for geranylgeranylation of RhoA at 50 uM incubated for 30 mins in presence of [3H]GGPP by scintillation counting assay relative to control
PANC-1 [11] = assay: Antiproliferative activity against human PANC1 cells assessed as inhibition of cell proliferation at 12.5 uM incubated for 72 hrs by CCK8 assay; assay type: functional, cell-based
[12] = Inhibition of rat recombinant geranylgeranyltransferase type I expressed in Escherichia coli assessed as reduction in geranylgeranylation of RhoA incubated for 30 mins in presence of [3H]GGPP by scintillation counting assay relative to control
HEK293 [13] = assay: Inhibition of geranylgeranyltransferase type I in HEK293 cells expressing Myc-HA-tagged Rheb-WT assessed as effect on unprenylated Rap1 accumulation at 3.1 to 25 uM incubated for 48 hrs by SDS-PAGE and immunoblot analysis; assay type: cell-based; conditions: Homo sapiens
Rattus norvegicus [14] = species: Rattus norvegicus; assay: Competitive inhibition of rat recombinant geranylgeranyltransferase type I expressed in Escherichia coli assessed as reduction in geranylgeranylation of RhoA incubated for 30 mins in presence of fixed level of [3H]GGPP and varying RhoA levels by scintillation counting assay relative to control
[15] = biological target: T1, Geranylgeranyl transferase type-2 (Homo sapiens); assay: Inhibition of RabGGTase in HEK293 cells assessed as increase in Rab5b protein in soluble fraction at 5 to 20 uM incubated for 48 hrs by SDS-PAGE and immunoblot analysis; assay type: cell-based
[16] = biological target: T2, Geranylgeranyl transferase type-2 (Homo sapiens, UniProt P53611+Q92696); assay: Competitive type inhibition of RabGGTase (unknown origin) using varying Rab7 as substrate protein and fixed [3H]geranylgeranyl pyrophosphate incubated for 20 mins by scintillation counting assay; assay type: protein-complex assay
T2 sequence (P53611 whole entry): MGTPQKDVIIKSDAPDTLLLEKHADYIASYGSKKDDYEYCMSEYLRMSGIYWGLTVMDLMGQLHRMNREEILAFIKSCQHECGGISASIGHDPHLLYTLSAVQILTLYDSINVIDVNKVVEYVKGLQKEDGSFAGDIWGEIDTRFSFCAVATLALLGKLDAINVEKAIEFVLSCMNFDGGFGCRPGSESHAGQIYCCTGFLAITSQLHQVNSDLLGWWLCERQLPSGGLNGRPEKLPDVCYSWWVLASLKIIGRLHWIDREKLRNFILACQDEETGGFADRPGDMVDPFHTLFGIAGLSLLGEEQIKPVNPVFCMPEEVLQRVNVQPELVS
T2 sequence (Q92696 whole entry): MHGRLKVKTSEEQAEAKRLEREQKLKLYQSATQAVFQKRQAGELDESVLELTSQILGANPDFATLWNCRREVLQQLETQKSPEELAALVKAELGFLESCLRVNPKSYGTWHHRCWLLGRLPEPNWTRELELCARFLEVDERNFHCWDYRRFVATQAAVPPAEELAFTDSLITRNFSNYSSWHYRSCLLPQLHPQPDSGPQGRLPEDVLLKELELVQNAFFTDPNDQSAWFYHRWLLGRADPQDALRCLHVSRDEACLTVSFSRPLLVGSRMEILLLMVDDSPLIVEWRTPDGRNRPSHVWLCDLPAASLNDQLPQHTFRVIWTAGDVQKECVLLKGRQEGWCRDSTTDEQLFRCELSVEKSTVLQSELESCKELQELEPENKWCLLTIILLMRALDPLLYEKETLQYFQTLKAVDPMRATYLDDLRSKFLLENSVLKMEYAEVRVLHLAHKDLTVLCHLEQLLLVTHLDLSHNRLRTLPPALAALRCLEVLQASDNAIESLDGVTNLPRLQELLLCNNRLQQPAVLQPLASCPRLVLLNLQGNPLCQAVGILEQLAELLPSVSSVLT

HEK293 [17] = assay: Inhibition of geranylgeranyltransferase type I in HEK293 cells expressing Myc-HA-tagged Rheb-WT assessed as effect on unprenylated Rap1 accumulation at 5 to 20 uM incubated for 48 hrs by SDS-PAGE and immunoblot analysis; assay type: cell-based; conditions: Homo sapiens
[18] = biological target: T1, Geranylgeranyl transferase type-2 (Homo sapiens); assay: Inhibition of RabGGTase in HEK293 cells assessed as reduction in geranylgeranylation of Rab5b protein at 5 to 20 uM incubated for 48 hrs by SDS-PAGE and immunoblot analysis; assay type: cell-based
[19] = biological target: T1, Geranylgeranyl transferase type-2 (Homo sapiens); assay: Uncompetitive type inhibition of RabGGTase (unknown origin) using fixed Rab7 as substrate protein and varying [3H]geranylgeranyl pyrophosphate incubated for 20 mins by scintillation counting assay; assay type: protein-complex assay
[20] = biological target: T2, Geranylgeranyl transferase type-2; assay: Inhibition of RabGGTase (unknown origin) using YPTI as substrate protein and [3H]geranylgeranyl pyrophosphate incubated for 20 mins by scintillation counting assay; assay type: protein-complex assay
[21] = biological target: Protein farnesyltransferase (Homo sapiens) (UniProt P49354+P49356); assay: Inhibition of FTase in HEK293 cells assessed as reduction in H-ras farnesylation at […] 10 uM incubated for 48 hrs by SDS-PAGE and immunoblot analysis; assay type: cell-based
[22] = biological target: T1, Geranylgeranyl transferase type-2 (Homo sapiens); assay: Inhibition of RabGGTase in HEK293 cells assessed as reduction in geranylgeranylation of Rab5b protein at 20 uM incubated for 48 hrs by SDS-PAGE and immunoblot analysis; assay type: cell-based
[23] = biological target: Protein farnesyltransferase (Rattus norvegicus, UniProt Q02293+Q04631); assay: Inhibition of rat recombinant FTase alpha/beta expressed in Escherichia coli using K-Ras4B as a substrate as and [3H]farnesyl pyrophosphate incubated for 30 mins by scintillation counting assay
[24] = as §1
PANC-1 [25] = assay: Antiproliferative activity against human PANC1 cells assessed as inhibition of cell proliferation incubated for 72 hrs by CCK8 assay; assay type: functional, cell-based; conditions: PANC-1, 72 h
K562 [26] = assay: Induction of cell cycle arrest in human K562 cells assessed as reduction in accumulation at S phase incubated for 48 hrs by flow cytometry; assay type: functional, cell-based
[27] = Antiproliferative activity against human SEMK2 cells assessed as inhibition of cell proliferation incubated for 6 days by CCK8 assay; assay type: functional, cell-based; conditions: SEMK2, 144 h
Jurkat [28] = assay: Antiproliferative activity against human Jurkat cells assessed as inhibition of cell proliferation incubated for 72 hrs by CCK8 assay; assay type: functional, cell-based
Capan-2 = assay: Antiproliferative activity against human Capan2 cells assessed as inhibition of cell proliferation incubated for 72 hrs by CCK8 assay; assay type: functional, cell-based; conditions: Capan-2, 72 h
CFPAC-1 = assay: Antiproliferative activity against human CFPAC-1 cells assessed as inhibition of cell proliferation incubated for 72 hrs by CCK8 assay; assay type: functional, cell-based; conditions: CFPAC-1, 72 h
K562 [29] = assay: Induction of cell cycle arrest in human K562 cells assessed as accumulation at G1 phase incubated for 48 hrs by flow cytometry; assay type: functional, cell-based
HPAC = assay: Antiproliferative activity against human HPAC cells assessed as inhibition of cell proliferation incubated for 72 hrs by CCK8 assay; assay type: functional, cell-based
ASPC1 = assay: Antiproliferative activity against human AsPC1 cells assessed as inhibition of cell proliferation incubated for 6 days by CCK8 assay; assay type: functional, cell-based; conditions: ASPC1, 144 h
MCF7 = assay: Antiproliferative activity against human MCF7 cells assessed as inhibition of cell proliferation incubated for 6 days by CCK8 assay; assay type: functional, cell-based
BT-474 = assay: Antiproliferative activity against human BT474 cells assessed as inhibition of cell proliferation incubated for 72 hrs by CCK8 assay; assay type: functional, cell-based; conditions: BT-474, 72 h
MIA PaCa-2 = assay: Antiproliferative activity against human MIAPaCa2 cells assessed as inhibition of cell proliferation incubated for 72 hrs by CCK8 assay; assay type: functional, cell-based; conditions: MIA PaCa-2, 72 h

Cc1ccccc1S(=O)(=O)N1[C@@H](c2ccc(Cl)cc2)C(C(=O)O)=C[C@H]1C(C)(C)C (relative stereo)
inhibition [1]: inactive | inhibition [2]: Active | inhibition (Rattus norvegicus [3]): inactive | Activity (Rattus norvegicus [4]): 13.3% | inhibition (HEK293 [5]): inactive | IC50 [6]: 2 µM | inhibition (HEK293 [7]): Active | inhibition (Rattus norvegicus [8]): Active | growth inhibition (GI) (Jurkat [9]): Active | Activity (Rattus norvegicus [10]): 5.3% | growth inhibition (GI) (PANC-1 [11]): Active | IC50 [12]: 0.5 to 2.5 µM | inhibition (HEK293 [13]): Active | inhibition (Rattus norvegicus [14]): Active

CCCCCCS[C@H]1[C@@H](C(=O)O)[C@H](c2ccc(Br)cc2)N(S(=O)(=O)c2ccc(C)cc2)[C@@H]1CCC
inhibition [15]: Active | Ki [16]: 1.36 µM | inhibition (HEK293 [17]): inactive | inhibition [18]: Active | inhibition [19]: Active | IC50 [20]: 2.1 µM | inhibition [21]: inactive | inhibition [22]: Active | IC50 [12]: > 50 µM | IC50 [23]: > 100 µM

Cc1ccccc1S(=O)(=O)N1[C@@H](c2ccc(Cl)cc2)C(COCC(=O)N[C@@H](Cc2ccccc2)C(N)=O)=C[C@H]1C(C)(C)C
IC50 [24]: 12.5 µM | IC50 (PANC-1 [25]): 12.6 µM | Activity (K562 [26]): Dose-dependent effect | IC50 [27]: 14.1 µM | IC50 (Jurkat [28]): 1.3 µM | IC50 (Capan-2): 11.1 µM | IC50 (CFPAC-1): 8.1 µM | Activity (K562 [29]): Dose-dependent effect | IC50 (HPAC): 11.7 µM | IC50 (ASPC1): > 20 µM | inhibition (MCF7): Dose-dependent effect | IC50 (MCF7; MCF7, 144 h): 6.4 µM | IC50 (BT-474): 11.6 µM | IC50 (MIA PaCa-2): 13.9 µM
